Results published in patent publication US9833497B2, “Human originated EGF domain proteins and use of the same” (CHENGDU SOURCEBIO LIMITED-LIABILITY COMPANY, priority 2013, dated 2017).

Tests used:
Format in all cases: cell-based
[1] = test system: E. coli BL21; test: MIC against Gram-negative bacteria: E. coli BL21; details: 5×10^5 CFU/mL; for MIC E. coli BL21: two-fold serial dilution
Procedure, shortened: (§1)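 Two-fold serial dilutions of each purified human EGF domain protein, three replicate wells per level, were combined with bacteria at a final 5×10^5 CFU/mL in LB. Cultures were shaken at 175 rpm, 37° C. The MIC was taken as the minimum concentration preventing growth.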

[2] = test system: Citrobacter diversus; test: MIC against Gram-negative bacteria: Citrobacter diversus; details: 5×10^5 CFU/mL; for MIC C. diversus: two-fold serial dilution
Procedure, shortened: as §1

[3] = test system: Proteus vulgaris; test: MIC against Gram-negative bacteria: Proteus vulgaris; details: 5×10^5 CFU/mL; for MIC P. vulgaris: two-fold serial dilution
Procedure, shortened: as §1

[4] = test system: Pseudomonas aeruginosa; test: MIC against Gram-negative bacteria: Pseudomonas aeruginosa; details: 5×10^5 CFU/mL; for MIC P. aeruginosa: two-fold serial dilution
Procedure, shortened: as §1

[5] = test system: Klebsiella pneumonia; test: MIC against Gram-negative bacteria: Klebsiella pneumonia; details: 5×10^5 CFU/mL; for MIC K. pneumonia: two-fold serial dilution
Procedure, shortened: as §1

[6] = test system: E. coli DH5α; test: Antibacterial activity: MIC and growth curve against E. coli DH5α in 96-well plate; details: minimal inhibitory concentration against E. coli DH5α; 96-well plate, 5×10^5 CFU/mL, 37° C., judged after 8 h
Procedure, shortened: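 MIC taken as lowest protein level with no bacterial growth, tracked by A600 every 30 min during 37 °C, 175 rpm culture. Two-fold protein series 50-12.5 μg/mL final, triplicate wells, against 5×10^5 CFU/mL of LB-washed mid-log cells.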

[7] = test system: Moraxella catarrhalis; test: MIC against Gram-negative bacteria: Moraxella catarrhalis; details: 5×10^5 CFU/mL; for MIC M. catarrhalis: two-fold serial dilution
Procedure, shortened: as §1

[8] = test system: Proteus mirabilis; test: MIC against Gram-negative bacteria: Proteus mirabilis; details: 5×10^5 CFU/mL; for MIC P. mirabilis: two-fold serial dilution
Procedure, shortened: as §1

[9] = test system: Enterobacter cloacae; test: MIC against Gram-negative bacteria: Enterobacter cloacae; details: 5×10^5 CFU/mL; for MIC E. cloacae: two-fold serial dilution
Procedure, shortened: as §1

[10] = test system: Serratia marcescens; test: MIC against Gram-negative bacteria: Serratia marcescens; details: 5×10^5 CFU/mL; for MIC S. marcescens: two-fold serial dilution
Procedure, shortened: as §1

[11] = test system: Aeromonas hydrophila; test: MIC against Gram-negative bacteria: Aeromonas hydrophila; details: 5×10^5 CFU/mL; for MIC A. hydrophila: two-fold serial dilution
Procedure, shortened: as §1

[12] = E. coli BL21, 10 h cultivation at 37° C.
[13] = C. diversus, 10 h cultivation at 37° C.
[14] = P. vulgaris, 10 h cultivation at 37° C.
[15] = P. aeruginosa, 10 h cultivation at 37° C.
[16] = K. pneumonia, 10 h cultivation at 37° C.
[17] = M. catarrhalis, 10 h cultivation at 37° C.
[18] = P. mirabilis, 10 h cultivation at 37° C.
[19] = E. cloacae, 10 h cultivation at 37° C.
[20] = S. marcescens, 10 h cultivation at 37° C.
[21] = A. hydrophila, 10 h cultivation at 37° C.

What does the source list for “PRT783 (WGPNCSLPCYCKNGASCSPDDGICECAPGFRGTTCQ; listed as Homo sapiens)”?
MIC (μg/mL) E. coli BL21 [1, 12]: 12.5 µg/mL; MIC (μg/mL) C. diversus [2, 13]: 25 µg/mL; MIC (μg/mL) P. vulgaris [3, 14]: 50 µg/mL; MIC (μg/mL) P. aeruginosa [4, 15]: 50 µg/mL; MIC (μg/mL) K. pneumonia [5, 16]: 12.5 µg/mL; MIC [6]: 25 µg/mL; MIC (μg/mL) M. catarrhalis [7, 17]: 12.5 µg/mL; MIC (μg/mL) P. mirabilis [8, 18]: 25 µg/mL; MIC (μg/mL) E. cloacae [9, 19]: 25 µg/mL; MIC (μg/mL) S. marcescens [10, 20]: 12.5 µg/mL; MIC (μg/mL) A. hydrophila [11, 21]: 50 µg/mL

Which results are given for “PRT421 (DQDECLLLPGELCQHLCINTVGSYHCACFPGFSLQDDGRTCR; listed as Homo sapiens)”?
MIC [1, 12]: 50 µg/mL; MIC [2, 13]: 12.5 µg/mL; MIC [3, 14]: 12.5 µg/mL; MIC [4, 15]: 12.5 µg/mL; MIC [5, 16]: 50 µg/mL; MIC [6]: 12.5 µg/mL; MIC [7, 17]: 50 µg/mL; MIC [8, 18]: 25 µg/mL; MIC [9, 19]: 12.5 µg/mL; MIC [10, 20]: 25 µg/mL; MIC [11, 21]: 50 µg/mL

“PRT85 (KLHFCDSGPCKNSGFCSERWGSFSCDCPVGFGGKDCQ; listed as Homo sapiens)” was tested. Which “MIC (μg/mL) E. coli BL21” value ([1]; E. coli BL21, 96-well plate, 37° C., 10 h) did it give?
The value was 12.5 µg/mL.

What about the “MIC (μg/mL) C. diversus” value ([2]; Citrobacter diversus, 96-well plate, 37° C., 10 h) of the same substance?
Its value is 25 µg/mL.

And the “MIC (μg/mL) P. vulgaris” value ([3]; Proteus vulgaris, 96-well plate, 37° C., 10 h)?
Its value is 12.5 µg/mL.

And the “MIC (μg/mL) P. aeruginosa” value ([4]; Pseudomonas aeruginosa, 96-well plate, 37° C., 10 h)?
Its value is 12.5 µg/mL.

And the “MIC (μg/mL) K. pneumonia” value ([5]; Klebsiella pneumonia, 96-well plate, 37° C., 10 h)?
The value was 12.5 µg/mL.

What about the MIC [6] of the same substance?
The MIC was 12.5 µg/mL.

And the “MIC (μg/mL) M. catarrhalis” value ([7]; Moraxella catarrhalis, 96-well plate, 37° C., 10 h)?
The value was 50 µg/mL.

What about the “MIC (μg/mL) P. mirabilis” value ([8]; Proteus mirabilis, 96-well plate, 37° C., 10 h) of the same substance?
Its value is 50 µg/mL.

And the “MIC (μg/mL) E. cloacae” value ([9]; Enterobacter cloacae, 96-well plate, 37° C., 10 h)?
Its value is 25 µg/mL.

And the “MIC (μg/mL) S. marcescens” value ([10]; Serratia marcescens, 96-well plate, 37° C., 10 h)?
Its value is 50 µg/mL.

And the “MIC (μg/mL) A. hydrophila” value ([11]; Aeromonas hydrophila, 96-well plate, 37° C., 10 h)?
Its value is 12.5 µg/mL.

For “PRT525 (CNCNRDGTEPGVCDPGTGACLCKENVEGTECNVCREGSFHLDPANLKGCTS; listed as Homo sapiens)”, which “MIC against E. coli BL21” value ([1]; 96-well plate, 37° C., 10 h) is on record?
Its value is 12.5 µg/mL.

And the “MIC against C. diversus” value ([2]; 96-well plate, 37° C., 10 h)?
Its value is 25 µg/mL.

What about the “MIC against P. vulgaris” value ([3]; 96-well plate, 37° C., 10 h) of the same substance?
The value was 12.5 µg/mL.

What about the “MIC against P. aeruginosa” value ([4]; 96-well plate, 37° C., 10 h) of the same substance?
Its value is 25 µg/mL.

What about the “MIC against K. pneumonia” value ([5]; 96-well plate, 37° C., 10 h) of the same substance?
The value was 50 µg/mL.

And the MIC [6]?
Its MIC is 25 µg/mL.

What about the “MIC against M. catarrhalis” value ([7]; 96-well plate, 37° C., 10 h) of the same substance?
The value was 50 µg/mL.

And the “MIC against P. mirabilis” value ([8]; 96-well plate, 37° C., 10 h)?
The value was 25 µg/mL.

And the “MIC against E. cloacae” value ([9]; 96-well plate, 37° C., 10 h)?
The value was 25 µg/mL.

What about the “MIC against S. marcescens” value ([10]; 96-well plate, 37° C., 10 h) of the same substance?
The value was 25 µg/mL.

And the “MIC against A. hydrophila” value ([11]; 96-well plate, 37° C., 10 h)?
Its value is 12.5 µg/mL.

Which results are given for “PRT1410 (IEGCPGLCNSNGRCTLDQNGWHCVCQPGWRGAGCD; listed as Homo sapiens)”?
MIC against E. coli BL21 [1, 12]: 12.5 µg/mL; MIC against C. diversus ([2]; Citrobacter diversus, 10 h cultivation at 37° C.): 50 µg/mL; MIC against P. vulgaris ([3]; Proteus vulgaris, 10 h cultivation at 37° C.): 12.5 µg/mL; MIC against P. aeruginosa ([4]; Pseudomonas aeruginosa, 10 h cultivation at 37° C.): 25 µg/mL; MIC against K. pneumonia ([5]; Klebsiella pneumonia, 10 h cultivation at 37° C.): 50 µg/mL; MIC [6]: 25 µg/mL; MIC against M. catarrhalis ([7]; Moraxella catarrhalis, 10 h cultivation at 37° C.): 100 µg/mL; MIC against P. mirabilis ([8]; Proteus mirabilis, 10 h cultivation at 37° C.): 50 µg/mL; MIC against E. cloacae ([9]; Enterobacter cloacae, 10 h cultivation at 37° C.): 25 µg/mL; MIC against S. marcescens ([10]; Serratia marcescens, 10 h cultivation at 37° C.): 12.5 µg/mL; MIC against A. hydrophila ([11]; Aeromonas hydrophila, 10 h cultivation at 37° C.): 12.5 µg/mL

How did the “MIC E. coli BL21” value ([1]; 10 h cultivation at 37° C.) turn out when “PRT1141 (EINECSSEPCKNNGTCVDLTNRFFCNCEPEYHGPFCE; listed as Homo sapiens)” was run?
Its value is 12.5 µg/mL.

And the “MIC C. diversus” value ([2]; 10 h cultivation at 37° C.)?
Its value is 25 µg/mL.

What about the “MIC P. vulgaris” value ([3]; 10 h cultivation at 37° C.) of the same substance?
Its value is 12.5 µg/mL.

What about the “MIC P. aeruginosa” value ([4]; 10 h cultivation at 37° C.) of the same substance?
Its value is 50 µg/mL.

What about the “MIC K. pneumonia” value ([5]; 10 h cultivation at 37° C.) of the same substance?
Its value is 12.5 µg/mL.

And the MIC [6]?
The MIC was 50 µg/mL.

And the “MIC M. catarrhalis” value ([7]; 10 h cultivation at 37° C.)?
The value was 50 µg/mL.

What about the “MIC P. mirabilis” value ([8]; 10 h cultivation at 37° C.) of the same substance?
The value was 25 µg/mL.

What about the “MIC E. cloacae” value ([9]; 10 h cultivation at 37° C.) of the same substance?
The value was 50 µg/mL.

And the “MIC S. marcescens” value ([10]; 10 h cultivation at 37° C.)?
The value was 25 µg/mL.

What about the “MIC A. hydrophila” value ([11]; 10 h cultivation at 37° C.) of the same substance?
The value was 12.5 µg/mL.

“PRT1181 (KEAVCKQGCNLLHGGCTVPGECRCSYGWQGRFCD; listed as Homo sapiens)” was tested. Which “MIC E. coli BL21” value ([1]; 10 h cultivation at 37° C.) did it give?
Its value is 50 µg/mL.

What about the “MIC C. diversus” value ([2]; 10 h cultivation at 37° C.) of the same substance?
Its value is 12.5 µg/mL.

And the “MIC P. vulgaris” value ([3]; 10 h cultivation at 37° C.)?
Its value is 50 µg/mL.

And the “MIC P. aeruginosa” value ([4]; 10 h cultivation at 37° C.)?
Its value is 12.5 µg/mL.

What about the “MIC K. pneumonia” value ([5]; 10 h cultivation at 37° C.) of the same substance?
The value was 50 µg/mL.

What about the MIC [6] of the same substance?
The MIC was 12.5 µg/mL.

What about the “MIC M. catarrhalis” value ([7]; 10 h cultivation at 37° C.) of the same substance?
Its value is 50 µg/mL.

And the “MIC P. mirabilis” value ([8]; 10 h cultivation at 37° C.)?
The value was 100 µg/mL.

And the “MIC E. cloacae” value ([9]; 10 h cultivation at 37° C.)?
Its value is 25 µg/mL.

And the “MIC S. marcescens” value ([10]; 10 h cultivation at 37° C.)?
The value was 25 µg/mL.

What about the “MIC A. hydrophila” value ([11]; 10 h cultivation at 37° C.) of the same substance?
Its value is 25 µg/mL.
